Reference: article PMC7942396, “Drug Repurposing Screen for Compounds Inhibiting the Cytopathic Effect of SARS-CoV-2” (Frontiers in Pharmacology, 2021)
Several values for one entry are separate records, joined by “and”; a condition that tells them apart may be missing. Identical values can stand only once. Counter-ions that a name gives are not always drawn. Like-named read-outs stand apart in the source and are kept apart here.

Assays:
[1] = system: SARS-CoV-2 (USA_WA1/2020); experiment: microbe, parasite or virus in culture; assay type: cell-based; conditions: for Emax: Severe acute respiratory syndrome coronavirus 2, Vero C1008, DMSO 0%, no-virus control 100%, hit confirmation, read-out: CPE % efficacy
Ebola virus = conditions: ref Kouznetsova et al., 2019; read-out: EC50, block of Ebola viral entry; cited from earlier work
in vitro = conditions: African green monkey
[2] = human, cited from earlier work
Vero E6 cells = experiment: cells; conditions: Chlorocebus sabaeus, Vero C1008, read-out: % Viability: IC50
SARS-CoV-2 [3] = system: SARS-CoV-2; set-up: method as in Stanford University, 2020; conditions: Vero E6 cells; ref Stanford University, 2020; read-out: EC50 against SARS-CoV-2; cited from earlier work
SARS-CoV-2 [4] = system: SARS-CoV-2; set-up: method as in Stanford University, 2020; conditions: Calu-3 or Huh7 cell lines; ref Stanford University, 2020; read-out: EC50 against SARS-CoV-2; cited from earlier work
P-glycoprotein (P-gp) = system: P-glycoprotein (P-gp); set-up: method as in EMA, 2020; conditions: ref EMA, 2020; cited from earlier work
SARS-CoV = conditions: ref Barnard et al., 2008; read-out: EC50, inhibition of SARS-CoV replication; cited from earlier work
[5] = Severe acute respiratory syndrome coronavirus 2, Vero C1008, 72 h, read-out: CPE EC50

Compound	EC50 [1, 5]	Emax [1]	cytotoxicity (in vitro)	EC50 (SARS-CoV)	also measured
CC(=O)c1ccc2c(c1)N(CCCN1CCC(CCO)CC1)c1ccccc1S2 [Piperacetazine, reference compound]	10 µM	104%	< 30%	–	EC50 (Ebola virus): 9.68 µM
CNCCC(Oc1ccc(C(F)(F)F)cc1)c1ccccc1 (racemic) [(+/-) -Fluoxetine, reference compound]	–	116%	< 30%	–	Elimination T1/2 ([2]; Single dose 40 mg PO, ref Eli Lilly and Company (1987)): 24 to 72 h
CCC(CC)COC(=O)[C@H](C)N[P@](=O)(OC[C@H]1O[C@@](C#N)(c2ccc3c(N)ncnn23)[C@H](O)[C@@H]1O)Oc1ccccc1 [Remdesivir, reference compound]	10 µM	133%	< 30%	–	EC50 ([1]; Severe acute respiratory syndrome coronavirus 2, Vero C1008, independent runs of primary screens and hit confirmation, read-out: EC50 in the CPE assay, control concentration-response per run): 4.56 µM; IC50 ([1]; Severe acute respiratory syndrome coronavirus 2, Vero C1008, printed in picture of Figure 2B, one value per run, read-out: % CPE Rescue: IC50): 4.56 µM; EC50 ([1]; independent runs of primary screens and hit confirmation, listed as remdesivir, read-out: EC50 in the CPE assay, control concentration-response per run): 5.17 µM; EC50 ([1]; independent runs of primary screens and hit confirmation, read-out: EC50 in the CPE assay, control concentration-response per run): 4.42 µM and 7.28 µM; IC50 (Vero E6 cells): > 30 µM; EC50 (SARS-CoV-2 [3]): > 1 µM; EC50 (SARS-CoV-2 [4]): > 0.05 µM; Substrate of Pgp (P-glycoprotein (P-gp)): substrate of Pgp
COc1ccc2c(c1)N(C[C@H](C)CN(C)C)c1ccccc1S2 [Methotrimeprazine maleate, reference compound]	10 µM	84.6%	–	~10 µM	Elimination T1/2 ([2]; Single dose 25 mg PO, ref AA Pharma Inc. (2012)): 10.8 h; cytotoxicity at 72 h (in vitro): < 30%
CN(C)CC/C=C1/c2ccccc2Sc2ccc(Cl)cc21 [Chlorprothixene, reference compound]	10 µM	104%	< 30%	~10 µM	Elimination T1/2 ([2]; Single dose 100 mg IV, ref Bagli et al. (1996)): 25.8 ± 13.6 h
